# Test results taken from US20080182277A1, “Assays and methods using biomarkers” (Genentech, Inc., priority 2005, published 2008).
# Columns and labels:
# RKO tumor xenografts = assay: Tumor xenograft study, RKO; assay type: in vivo, mice; settings: Fut-6-negative RKO; 60 mg/kg/day i.p. on days 0-4
# Description: (§1) FIG. 10A-D illustrates differential expression of specific O-glycosylation enzymes in Apo2L/TRAIL-sensitive and -resistant cancer cell lines: (A) Cell viability was measured after incubation with varying doses of Apo2L/TRAIL. IC50 for each cell line was computed as the concentration of Apo2L/TRAIL that gives 50% loss of viability. Each cell viability experiment was repeated at least three times in presence of low (0.5%) and high (10%) fetal bovine serum. Black, grey, or open symbols depict cell lines that are highly sensitive, moderately sensitive, or resistant to Apo2L/TRAIL, respectively. (B) ppGalNAcT-14 mRNA expression levels (probe set 219271 at) in pancreatic and malignant melanoma cell lines. Cell lines are arranged by tissue type and sensitivity to Apo2L/TRAIL. […] Athymic nude mice carrying GalNAcT-3/Fut-6-positive (left panel) or GalNAcT-3/Fut-6-negative (right panel) tumors received vehicle or Apo2L/TRAIL (60 mg/kg/day i.p. on days 0-4) and tumor volume was monitored (mean ±SE, N=10 mice/group).
# (§2) Monosaccharide composition of CHO-cell-derived DR5 was obtained after hydrolysis with 4 N TFA. […] Tumor measurements were collected by a digital caliper and tumor volumes calculated using the formula […] (A=length) (B=width)^2. […]
# PSN-1 cells = assay: Immunoblot analysis of the Apo2L/TRAIL-induced caspase cascade, PSN-1; assay type: cell-based, human; settings: siRNA 48 h, Apo2L/TRAIL 4 or 8 h
# Description: (§3) FIG. 12 illustrates (A) Analysis of the caspase cascade induced by Apo2L/TRAIL. PSN-1 and DLD-1 cells were transfected with siRNAs against ppGalNAcT-14 or Fut-6, respectively, for 48 h. The cells were treated with Apo2L/TRAIL for 4 or 8 h, and cell lysates were analyzed by immunoblot with antibodies specific for caspase-8, Bid, caspase-9, caspase-3, or actin as a loading control. (B) PSN-1 cells were transfected with ppGalNAcT-14 siRNA as in A, treated with Apo2L/TRAIL for 4 h, and caspase-3/7 enzymatic activity in cell lysates was determined. (C) Analysis of the Apo2L/TRAIL DISC. PSN-1 cells were transfected with ppGalNAcT-14 siRNA as in A. FLAG-Apo2L/TRAIL ([…]) was added for 0-60 min, the cells were lysed, and subjected to an immunoprecipitation with an anti-FLAG antibody. DISC-associated FADD, caspase-8, DR4, and were detected by immunoblot. (D) PSN-1 cells were transfected, treated, and subjected to DISC immunoprecipitation as in C, and DISC-associated caspase-8 enzymatic activity was measured as previously described (Sharp et al., J. Biol. Chem., 280:19401 (2005).
# (§4) siRNAs were purchased as double stranded RNA oligonucleotides and transfected into the respective cell lines at a final concentration of 25 nM for each siRNA. siRNA duplexes against a non-targeting sequence (Dharmacon) was used as a control. […]
# DLD-1 cells = assay: Immunoblot analysis of the Apo2L/TRAIL-induced caspase cascade, DLD-1; assay type: cell-based, human; settings: siRNA 48 h, Apo2L/TRAIL 4 or 8 h
# Description: as §3, §4
# Colo320 tumor xenografts = assay: Tumor xenograft study, Colo320; assay type: in vivo, mice; settings: Fut-6-negative Colo320; 60 mg/kg/day i.p. on days 0-4
# Description: as §1, §2
# DLD-1 tumor xenografts = assay: Tumor xenograft study, DLD-1; assay type: in vivo, mice; settings: Fut-6-positive DLD-1; 60 mg/kg/day i.p. on days 0-4
# Description: as §1, §2
# [1] = test system: panel of human cancer cell lines (23 pancreatic adenocarcinomas, 18 malignant melanomas, 36 colorectal adenocarcinomas); assay: Cell viability assay to determine IC50 for Apo2L/TRAIL in a cancer cell line panel; assay type: cell-based
# Description: FIG. 10A-D illustrates differential expression of specific O-glycosylation enzymes in Apo2L/TRAIL-sensitive and -resistant cancer cell lines: (A) Cell viability was measured after incubation with varying doses of Apo2L/TRAIL. IC50 for each cell line was computed as the concentration of Apo2L/TRAIL that gives 50% loss of viability. Each cell viability experiment was repeated at least three times in presence of low (0.5%) and high (10%) fetal bovine serum. Black, grey, or open symbols depict cell lines that are highly sensitive, moderately sensitive, or resistant to Apo2L/TRAIL, respectively. (B) ppGalNAcT-14 mRNA expression levels (probe set 219271 at) in pancreatic and malignant melanoma cell lines. Cell lines are arranged by tissue type and sensitivity to Apo2L/TRAIL. Black, grey, or open bars depict cell lines as in A. (C) mRNA expression levels of Fut-6 (top panel, probe set 211885_x_at) and ppGalNAcT-3 (bottom panel, probe set 203397_s_at) in colorectal cancer cell lines. […] Athymic nude mice carrying GalNAcT-3/Fut-6-positive (left panel) or GalNAcT-3/Fut-6-negative (right panel) tumors received vehicle or Apo2L/TRAIL (60 mg/kg/day i.p. on days 0-4) and tumor volume was monitored (mean ±SE, N=10 mice/group). […]
# Colo205 tumor xenografts = assay: Tumor xenograft study, Colo205; assay type: in vivo, mice; settings: Fut-6-positive Colo205; 60 mg/kg/day i.p. on days 0-4
# Description: as §1, §2
# Hs294T melanoma cells = assay: siRNA knockdown followed by cell viability assay, Hs294T; assay type: cell-based, human; settings: siRNA 25 nM 48 h, then Apo2L/TRAIL 24 h
# Description: (§5) FIG. 11 illustrates modulation of particular O-glycosylation enzymes alters sensitivity to Apo2L/TRAIL. (A) Colo205 cells were preincubated with the pan O-glycosylation enzyme inhibitor benzyl-GalNAc (bGalNAc), treated with Apo2L/TRAIL for 24 h, and cell viability was determined (DMSO=vehicle control). (B) PSN-1 (pancreatic carcinoma) and Hs294T (melanoma) cells were transfected with caspase-8 or ppGalNAcT-14 siRNAs for 48 h, incubated with Apo2L/TRAIL for another 24 h and cell viability was determined. siRNA duplexes against a non-targeting sequence (Dharmacon) were used as a control (NTC). (C) DLD-1 colorectal carcinoma cells were transfected with ppGalNAcT-3 or Fut-6 by siRNAs and tested as in B. (D) HEK293 cells were co-transfected with plasmids encoding the indicated genes in combination with ppGalNAcT-14 or vector control. Apoptosis was measured at 24 h by Annexin V staining (left panel). H1569 melanoma cells were transduced with retrovirus directing ppGalNAcT-14 expression or control retrovirus; resulting cell line pools were treated with Apo2L/TRAIL for 24 h and cell viability was determined (right panel). Western blot analysis using anti-FLAG antibodies was used to verify expression of epitope-tagged ppGalNAcT-14.
# (§6) FIG. 14 illustrates (A) Reduction in mRNA expression of ppGalNAcT-14 or ppGalNAcT-3 in PSN-1 or DLD-1 cells after 48 h siRNA knockdown by Taqman analysis. […]
# [2] = test system: PSN-1 pancreatic carcinoma cells; assay: siRNA knockdown followed by cell viability assay, PSN-1; assay type: cell-based, human; settings: siRNA 25 nM 48 h, then Apo2L/TRAIL 24 h
# Description: as §5, §6
# Colo205 cells = assay: Inhibition of O-glycosylation with benzyl-GalNAc, then Apo2L/TRAIL viability assay; assay type: cell-based, human; settings: preincubation with Benzyl-a-GalNAc 2 mM or 4 mM, then Apo2L/TRAIL 24 h
# Description: as §5
# Colo205 cells were grown in the presence of Benzyl-a-GalNAc (2 mM or 4 mM) for 72 hours. […]
Compound,effect on growth of established tumor xenografts (RKO tumor xenografts),"Apo2L/TRAIL-induced caspase processing (caspase-8, Bid, caspase-9, caspase-3) (PSN-1 cells)","Apo2L/TRAIL-induced caspase processing (caspase-8, Bid, caspase-9, caspase-3) (DLD-1 cells)",effect on growth of established tumor xenografts (Colo320 tumor xenografts),effect on growth of established tumor xenografts (DLD-1 tumor xenografts),cell lines classified as highly or moderately sensitive to Apo2L/TRAIL ([1]; 29/77 cell lines) [%],"Apo2L/TRAIL concentration required for achieving 50% cell death, mean ([1]; mean over the 29 highly or moderately sensitive cell lines) [ng/mL]",effect on growth of established tumor xenografts (Colo205 tumor xenografts),effect on sensitivity to Apo2L/TRAIL (cell viability) (Hs294T melanoma cells),effect on sensitivity to Apo2L/TRAIL (cell viability) [2],effect on sensitivity to Apo2L/TRAIL (cell viability) (Colo205 cells)
"Apo2L/TRAIL: nontagged soluble recombinant human Apo2L/TRAIL, prepared as described in Lawrence et al.",did not respond,essentially complete processing of caspase-8,essentially complete processing of caspase-8,did not respond,tumor regression followed by a greatly delayed tumor progression,38,250,tumor regression followed by a greatly delayed tumor progression,–,–,–
"5′ GGACAAAGTTTACCAAATG-dTdT 3′ [caspase-8 siRNA, reference compound]",–,prevented these events,prevented these events,–,–,–,–,–,essentially complete protection,essentially complete protection,–
"CC(=O)N[C@H]1[C@@H](OCc2ccccc2)O[C@H](CO)[C@H](O)[C@@H]1O [benzyl-GalNAc, Benzyl-a-GalNAc]",–,–,–,–,–,–,–,–,–,–,markedly reduced sensitivity to Apo2L/TRAIL
